Test [1] deals with HASMC. Briefly: Inhibition of proliferation of human aortic smooth muscle cells at a concentration of 5 uM; NE is no Effect. The class given is functional, cell-based.
Test [2] can be described thus: Inhibitory effect in preventing the oxidation of linoleic acid by 15-lipoxygenase at a concentration of 70 uM. Type of test: functional.
Test [3] deals with Mus musculus. Briefly: Inhibition of progression of atherosclerosis in aorta after oral dosing in cholesterol fed LDL receptor knockout mice. The class given is functional.
Test [4] deals with HASMC. Briefly: Inhibition of proliferation of human aortic smooth muscle cells at a concentration of 5 uM. The class given is functional.
For test [5], the system named is Oryctolagus cuniculus. Description: Inhibition of progression of atherosclerosis in aorta after oral dosing in cholesterol fed rabbits. The class given is functional.
The nature of test [6]: Concentration required for 50% inhibition of TNF-alpha inducible Selectin E expression.
Test [7] can be described thus: Concentration required for 50% inhibition of TNF-alpha inducible MCP-1 expression.

Activity calls are given as the source filed them. No cut-off for these calls is given here.

Usually inhibition stands for the drop in the measured response relative to a control, in per cent. Take `CC(C)(Sc1cc(C(C)(C)C)c(O)c(C(C)(C)C)c1)Sc1cc(C(C)(C)C)c(O)c(C(C)(C)C)c1`: the inhibition entry in test [1] was “inactive”.

Turning to `CC(C)(Sc1cc(C(C)(C)C)c(OC(=O)CCC(=O)O)c(C(C)(C)C)c1)Sc1cc(C(C)(C)C)c(OC(=O)CCC(=O)O)c(C(C)(C)C)c1`, the inhibition in test [2] is 85%.

For orientation: Inhibition means how much of the control response was suppressed. For orientation: IC50 means the point on the concentration scale where inhibition reaches its midpoint. Low readings indicate higher potency, high ones lower potency. `CC(C)(Sc1cc(C(C)(C)C)c(O)c(C(C)(C)C)c1)Sc1cc(C(C)(C)C)c(OC(=O)CCC(=O)O)c(C(C)(C)C)c1` [SUCCINOBUCOL]: the Inhibition was determined as 43% in test [3] and 94% in test [5]. The inhibition at 5 µM in test [4] is around 50%. This compound yielded an inhibition in test [2] of 85%. Besides, the IC50 in test [6] was 25 µM; in test [7] it was 10 µM.
